Key:
[1] = target: T1, human immunoproteasome β5i (Homo sapiens, UniProt P28062); assay: IC50 against chymotryptic β5i activity of human immunoproteasome (96-well plate, Ac-ANW-AMC); format: biochemical; conditions: β5i; substrate Ac-ANW-AMC; read-out: IC50 Hu i-20S (Ac-ANW-AMC)
T1 construct: purchased Boston Biochem Inc
Protocol: A 96-well-plate assays were used to determine the IC50s against the chymotryptic β5 activities of the proteasomes. Both human constitutive proteasome and immunoproteasome were purchased from Boston Biochem Inc. 1 μL of 100× compound in DMSO at designated concentrations were spotted at the bottom of the wells. DMSO was used as a control. […] The hydrolysis of the substrate over time in each well was monitored at excitation 360 nm, emission 460 nm for 90 minutes. IC50s were estimated by fitting the velocities of hydrolysis against compound concentrations using PRISM. […] SDS (0.02%) was used as activator, and 0.01% BSA was used in the reaction buffer.

Plasmodium falciparum = assay: Growth of Plasmodium falciparum in red blood cells (SYBR Green, 72 hours); format: cell-based; conditions: Erythrocyte, P.f. 3D7, growth in red blood cells, read-out: EC50 (nM) (P.f.)
Protocol: Continuous in vitro cultures of Plasmodium falciparum: were maintained in human red blood cells (RBC) diluted to a hematocrit of 5% in RPMI 1640 medium with HEPES and Hypoxanthine and completed with 0.5% Albumax II (Invitrogen), 0.25% sodium bicarbonate, and 0.1 mg/ml gentamicin. Parasites were incubated at 37° C. in a gas mixture of 5% oxygen, 5% carbon dioxide, and 90% nitrogen.
Parasite sensitivity to novel compounds were determined using a SYBR Green (Invitrogen S1046) drug assay protocol. P. falciparum of various clinic stains were cultured with compounds at concentrations in a series of dilution in a clear, sterile 96-well plate for 72 hours. Subsequently, 150 μl of the cultures were transferred to a black 96-well plate and placed in the freezer for red blood cell lysis. The plates were thawed and suspended in a Sybr Green Lysis buffer. GraphPad Prism was used to analyze the raw data collected […]. Drug concentrations were converted to logarithms, normalized, and then curve fitted by non-linear regression to obtain EC50 values.
Plasmodium falciparum: parasites were cultured in human red cells. Drug assays were run in 96 well plates at a total volume of 200 μl. Assays were set up at a starting parasitemia (percent of infected red cells) of 0.5%. Test compounds were plated at concentrations of 2778 nM to 0.4 nM. The test plates were grown under standard low oxygen conditions at 37° C. for 72 hours. At that time the plates were prepared for growth determination, first the plates were frozen and thawed to lyse the red blood cells, 150 μl of the lysed thawed culture was transferred to a black 96 well plate, and mixed in a lysis buffer with SYBR green DNA dye. The fluorescence of each well was recorded in a plate reader with excitation wavelength 490 nm and emission wavelength 530 nm and normalized relative to DMSO control. The EC50s were determined using Prism software.

[2] = target: T2, human constitutive proteasome β5c (Homo sapiens, UniProt P28074); assay: IC50 against chymotryptic β5c activity of human constitutive proteasome (96-well plate, Suc-LLVY-AMC); format: biochemical; conditions: β5c; substrate Suc-LLVY-AMC; read-out: IC50 Hu c-20S (Suc-LLVY-AMC)
T2 construct: purchased Boston Biochem Inc
Protocol: A 96-well-plate assays were used to determine the IC50s against the chymotryptic β5 activities of the proteasomes. Both human constitutive proteasome and immunoproteasome were purchased from Boston Biochem Inc. 1 μL of 100× compound in DMSO at designated concentrations were spotted at the bottom of the wells. DMSO was used as a control. Final concentrations of the inhibitors were from 100 μM to 0.098 μM. The hydrolysis of the substrate over time in each well was monitored at excitation 360 nm, emission 460 nm for 90 minutes. IC50s were estimated by fitting the velocities of hydrolysis against compound concentrations using PRISM. […] Suc-LLVY-AMC was used for βc at final concentration of 25 μM, and Ac-ANW-AMC for b5i at final concentration of 15 μM. SDS (0.02%) was used as activator, and 0.01% BSA was used in the reaction buffer.
The foregoing features of these AsnEDA encouraged a further round of SAR studies (Table 5) based on varying the carboxylic acid at the ethylenediamine, the N-cap at the Asn, and the side chain of the Asn, based on PKS21004. All compounds listed in the Table 5 were synthesized as described in Examples 6-77. All final compounds were confirmed by NMR and HRMS. IC50s of all compounds against β5i and β5c (Table 5), β1i, β2i, β1c and β2c were determined following a reported method (Lin et al., “N,C-Capped Dipeptides With Selectivity for Mycobacterial Proteasome Over Human Proteasomes: Role of S3 and S1Binding Pockets,” J Am Chem Soc. 135:9968-9971 (2013), which is hereby incorporated by reference in its entirety). […] The [1,1′-biphenyl]-3-carboxamide of PKS21004 was then modified with the following substituents: 4′-fluoro (PKS21026), 4′-cyano (PKS21028), 4-fluoro (PKS21196), 4,3′-difluoro (PKS21195) and 4,2′-difluoro (PKS21187).

Pf Gametocytes = assay: Gametocyte killing assay (DilC1(5), flow cytometry); format: cell-based; conditions: Plasmodium falciparum; NF54 peg4-tdTomato, 72 hour incubation; read-out: EC50 against Pf Gametocytes
Protocol: Asexual replication of NF54 peg4-tdTomato parasites was eliminated by treating with 50 mM GlcNAc and 20 U/mL Heparin for 3 days. NF54 peg4-tdTomato parasites then were maintained using standard culture techniques. Gametocytes were induced synchronously according to Fivelman et al., “Improved Synchronous Production of Plasmodium Falciparum Gametocytes in Vitro,” Mol Biochemo Parasitol. 154(1):119-123 (2007), which is hereby incorporated by reference in its entirety. Asexual replication was eliminated by treating with 50 mM GlcNAc for 3 days. Gametocyte killing assays were setup on days 5 and 10 in triplicate 96-well format at 1% hematocrit and 2% gametocytemia. Compounds were setup in triplicate and serially diluted 3-fold. In addition, 6 solvent controls (DMSO) were distributed evenly across the plate. Following a 72 hour incubation, Stage III-IV (Day 5-7) and Stage IV-V (Day 10-12), (start the incubation in the afternoon on Day 5 and Day 10, take out plate for assay on Day8 and Day13 afternoon) cultures were stained with 16 nM Hoechst 33342 and 50 nM DilC1(5) for 30 min at 37 C. Using a Cytek DxP12 flow cytometer, gametocytemia was determined by gating for DNA+, hemozoin-high cells and gametocyte viability was inferred based on mitochondrial membrane potential-dependent accumulation of DilC1(5) for 2000-3000 gametocytes (Tanaka et al., “Potent Plasmodium Falciparum Gametocytocidal Activity of Diaminonaphthoquinones, Lead Antimalarial Chemotypes Identified in an Antimalarial Compound Screen,” Antimicrob. Agents Chemother. 2015, 59:1389 (2015), which is hereby incorporated by reference in its entirety). Mean DilC1(5) signal was normalized to solvent control and the overall minimum and used to calculate the EC50 (FIG. 3 and Table 4).

IC50 [1] | IC50 [2] | SMILES | EC50 (Plasmodium falciparum) | EC50 (Pf Gametocytes)
0.019 µM | 0.51 µM | Cc1ccc(S(=O)(=O)N[C@@H](CC(=O)NC(C)(C)C)C(=O)NCCNC(=O)c2cc(-c3ccccc3)ccn2)cc1 [PKS21229] | 1 nM | –
0.015 µM | 0.187 µM | Cc1ccc(S(=O)(=O)N[C@@H](CC(=O)NC(C)(C)C)C(=O)NCCNC(=O)c2ccccc2O)cc1 [PKS21292] | 2.9 nM | –
0.37 µM | 1.22 µM | CC(C)(C)NC(=O)C[C@H](NC(=O)CCc1ccccc1)C(=O)NCCNC(=O)c1cccc2ccccc12 [PKS3080] | 23 nM | –

SMILES | IC50 [1] | IC50 [2] | EC50 (Plasmodium falciparum) | EC50 (Pf Gametocytes)
Cc1cc(C(=O)N[C@@H](CC(=O)NC(C)(C)C)C(=O)NCCNC(=O)c2cc(-c3ccccc3)ccn2)no1 [PKS21224] | 0.746 µM | 33.7 µM | 11 nM | 0.162 µM
